Columns and labels:
Lipoxygenase (LP) = molecular target: T1, Lipoxygenase (LP) (Rattus norvegicus, UniProt P12527); test: Lipoxygenase assay with cell-free enzyme from RBL 2H3 cells (EIA); assay type: biochemical; settings: final concentration of 10 µM
T1 construct: cell-free enzyme (Wong et al, 1991) prepared from rat basophilic leukemia (RBL) 2H3 cell lines; endogenous in cells; host or cells: RBL 2H3 (rat basophilic leukemia), 15,000 g supernatant of cells disrupted by nitrogen cavitation
T1 sequence (P12527 1-673): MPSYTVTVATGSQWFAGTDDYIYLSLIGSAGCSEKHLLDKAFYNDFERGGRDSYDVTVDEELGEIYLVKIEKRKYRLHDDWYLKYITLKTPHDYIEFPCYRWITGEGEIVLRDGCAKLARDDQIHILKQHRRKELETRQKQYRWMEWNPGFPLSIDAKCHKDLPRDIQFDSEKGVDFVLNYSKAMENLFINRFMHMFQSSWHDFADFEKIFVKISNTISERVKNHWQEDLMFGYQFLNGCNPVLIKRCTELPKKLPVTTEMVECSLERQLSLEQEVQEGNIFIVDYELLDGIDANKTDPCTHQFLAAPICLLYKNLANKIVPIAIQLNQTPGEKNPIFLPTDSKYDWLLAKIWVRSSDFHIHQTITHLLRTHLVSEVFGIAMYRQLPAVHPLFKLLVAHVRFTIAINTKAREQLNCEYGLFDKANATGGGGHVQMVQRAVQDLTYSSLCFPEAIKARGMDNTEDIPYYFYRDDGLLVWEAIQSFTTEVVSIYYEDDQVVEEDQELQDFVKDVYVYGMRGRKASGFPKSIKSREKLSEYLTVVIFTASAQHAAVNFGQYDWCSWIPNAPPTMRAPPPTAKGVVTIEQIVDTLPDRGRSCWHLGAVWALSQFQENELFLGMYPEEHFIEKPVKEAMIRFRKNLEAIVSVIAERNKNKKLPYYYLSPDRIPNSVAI
Outline: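 Cell-free enzyme from the 15,000 g supernatant of nitrogen-cavitated RBL 2H3 cells, preincubated 5 min with compound at 10 µM final (1.5% DMSO) in Hepes pH 7. Reaction started with CaCl2, ATP, PAF and arachidonic acid and run 8 min at room temperature; product quantified by EIA.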

guinea pig atria = test: Organ bath assay on isolated guinea pig atria (rate and force of contraction); settings: for HEART RATE / FORCE OF CONTRACT^n: result in words
Outline: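 Atria from 3-4-week-old male guinea pigs mounted in Krebs-Henseleit solution gassed with carbogen, under 1 g tension, stabilised 20 min. Rate and force of contraction recorded. Compounds in DMSO tested up to 50 µM maximum, final DMSO 2.5 %.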

Cyclo-oxygenase (COX) = test: Cyclo-oxygenase assay in RBL 2H3 cells (PGD2 EIA); assay type: cell-based, rat; settings: final concentration of 10 µM
Method: Cyclo-oxygenase (COX) assay was performed with cells in culture prepared from rat basophilic leukemia (RBL) 2H3 cell lines. Cells were cultured in EMEM containing 10% fetal calf serum and antibiotic until cells reached confluence. Harvested cells were subsequently seeded on 24-well plates at 1 x 10^6 cells/ml then incubated at 37°C for 3 hours. Cells were washed twice with incubation buffer (1.5 ml) containing 5 mM Hepes, 140 mM NaCl, 5 mM KCl, 0.6 mM MgCl2, 1 mM CaCl2 and […]. Cells were then covered with 0.49 ml of buffer, followed by addition of samples/solvents (0.005 ml) and incubated at 37 °C for 5 min on an orbital shaker. Arachidonic acid (0.005 ml, containing 50% EtOH) was subsequently added, and the plate was incubated at similar conditions for a further 10 min. The supernatant (0.1 ml) was aliquoted for methoxime derivatisation of PGD2, which was carried out by heating the supernatant with methoxime solution (1:1) at 60 °C for 30 min according to the instructions provided with the kit. The resultant solution was diluted with EIA buffer and stored on ice for EIA, following the protocol provided with the kit.
Validation of COX enzyme activity was carried out using EIA in which the enzyme activity was characterised against various concentrations of AA and a time course of enzyme activity.
[…] Indomethacin was used as reference compound. The concentration of DMSO in the assay was maintained at 1.5%.

activity at 10 µM (Lipoxygenase (LP)) | Structure (SMILES) | Cyclooxygenase activity % activity (Cyclo-oxygenase (COX)) | HEART RATE (guinea pig atria; guinea pig atria) | FORCE OF CONTRACT^n (guinea pig atria; guinea pig atria) | also measured
35% | CCCCCCCC(O)CCCCc1ccc(O)c(OC)c1 (centres unmarked) [1-(4-hydroxy-3-methoxyphenyl)dodecan-5-ol] | 12% | ↑weakly | – | FORCE OF CONTRACT^n ↑ increase (guinea pig atria; @ 30 (µM), guinea pig atria): ↑79% @ 30
175% | CCCCCCCC(O)CC(=O)c1ccc(O)c(OC)c1 (centres unmarked) [3-hydroxy-1-(4-hydroxy-3-methoxyphenyl)decan-1-one] | 123% | negative chronotropic activity | negative inotropic activity | FORCE OF CONTRACT^n ↓ decrease (guinea pig atria; @ 10 (µM), guinea pig atria): ↓11% @ 10; HEART RATE ↓ decrease (guinea pig atria; @ 10 (µM), guinea pig atria): ↓5% @ 10; FORCE OF CONTRACT^n ↓ decrease (guinea pig atria; @ 30 (µM), guinea pig atria): ↓13% @ 30; increase on driven guinea pig left atria (guinea pig atria; at 10 µM): 50%
107% | CCCCCCCC(O)CC(=O)CCc1ccc2c(c1)OCO2 (centres unmarked) [5-hydroxy-1-(3,4-methylenedioxyphenyl)dodecan-3-one] | 59% | – | – | –
26% | CCCCCCCC(O)CC(O)CCc1ccc(O)c(OC)c1 (centres unmarked) [[8]-gingerdiol, 1-(4-hydroxy-3-methoxyphenyl)dodecane-3,5-diol, reference compound] | 10% | inactive | inactive | –
65.5% | CCCCCCCC(O)CC(=O)CCc1ccc(O)c(OC)c1 (centres unmarked) [[8]-gingerol, 5-hydroxy-1-(4-hydroxy-3-methoxyphenyl)dodecan-3-one, reference compound] | 16% | – | – | FORCE OF CONTRACT^n ↑ increase (guinea pig atria; @ 3 (µM), guinea pig atria): ↑160% @ 3; HEART RATE ↑ increase (guinea pig atria; @ 3 (µM), guinea pig atria): ↑31% @ 3; time to increased cardiac contractility after addition of the drug (guinea pig atria; guinea pig atria): 15 s
8% | CCCCCCCC(O)CC(=O)CCc1ccc(OC)c(O)c1 (centres unmarked) [[8]-isogingerol, 5-hydroxy-1-(3-hydroxy-4-methoxyphenyl)dodecan-3-one, reference compound] | 23% | inactive | inactive | –
118% | CCCCCCCC(O)CC(=O)CCc1cccc(OC)c1O (centres unmarked) [[8]-orthogingerol, 5-hydroxy-1-(2-hydroxy-3-methoxyphenyl)dodecan-3-one] | 17% | inactive | inactive | –

Continued, molecule first:

Structure (SMILES) | activity at 10 µM (Lipoxygenase (LP)) | Cyclooxygenase activity % activity (Cyclo-oxygenase (COX)) | HEART RATE (guinea pig atria; guinea pig atria) | FORCE OF CONTRACT^n (guinea pig atria; guinea pig atria) | also measured
CCCCCCCCCC(O)CCc1ccc(O)c(OC)c1 (centres unmarked) [1-(4-hydroxy-3-methoxyphenyl)dodecan-3-ol] | 31% | 9% | – | – | FORCE OF CONTRACT^n ↑ increase (guinea pig atria; @ 10 (µM), guinea pig atria): ↑180% @ 10; HEART RATE ↑ increase (guinea pig atria; @ 10 (µM), guinea pig atria): ↑50% @ 10; increase on driven guinea pig left atria (guinea pig atria; at 1 µM, followed by arrhythmia): 50%; potency of one enantiomer versus the other in increasing the force of contraction (guinea pig atria; guinea pig atria): 100 fold; arrhythmia (guinea pig atria; guinea pig atria, after addition of a dose): followed by arrhythmia
CCCCCCCC(=O)CC(O)CCc1ccc(O)c(OC)c1 (centres unmarked) [3-hydroxy-1-(4-hydroxy-3-methoxyphenyl)dodecan-5-one] | 193% | 18% | – | – | FORCE OF CONTRACT^n ↑ increase (guinea pig atria; @ 5 (µM), guinea pig atria): ↑270% @ 5; FORCE OF CONTRACT^n ↑ increase (guinea pig atria; @ 10 (µM), guinea pig atria): ↑130% @ 10; HEART RATE ↑ increase (guinea pig atria; @ 10 (µM), guinea pig atria): ↑30% @ 10
CCCCCC(O)CC(=O)CCc1ccc(O)c(OC)c1 (centres unmarked) [[6]-gingerol, 5-hydroxy-1-(4-hydroxy-3-methoxyphenyl)decan-3-one, reference compound] | 202% | 55% | – | – | FORCE OF CONTRACT^n ↑ increase (guinea pig atria; @ 50 (µM), guinea pig atria): ↑86% @ 50; HEART RATE ↑ increase (guinea pig atria; @ 50 (µM), guinea pig atria): ↑10% @ 50
CCCCCCCC(O)CC(=O)C=Cc1ccc(O)c(OC)c1 (centres unmarked) [[8]-dehydrogingerol, 5-hydroxy-1-(4-hydroxy-3-methoxyphenyl)dodecan-1-ene-3-one, reference compound] | 37% | 19% | – | – | FORCE OF CONTRACT^n ↑ increase (guinea pig atria; @ 25 (µM), guinea pig atria): ↑80% @ 25; HEART RATE ↑ increase (guinea pig atria; @ 25 (µM), guinea pig atria): ↑17% @ 25; time for tension to reach maximum after addition of a dose (guinea pig atria; guinea pig atria): a few mins
CCCCCCCC(O)CC(=O)CCc1ccc(O)cc1 (centres unmarked) [[8]-demethoxygingerol, 5-hydroxy-1-(4-hydroxyphenyl)dodecan-3-one] | 450% | 63% | inactive | inactive | –

Source: patent EP1056700B1, “MEDICINAL USES OF PHENYLALKANOLS AND DERIVATES” (ZingoTX Pty Ltd, priority 1997, dated 1999)
